Results as given in PubChem BioAssay (NCI).
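Each compound was tested at five concentrations against cells in 96-well plates for 48 hours. GI50: concentration for 50% inhibition of growth. TGI: total growth inhibition.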

Legend:
Assay in all cases: NCI anticancer screen, dose series, 48 h
[1] = test system: T-47D breast
[2] = test system: A549 NSCLC
[3] = test system: SK-MEL-5 melanoma
[4] = test system: M14 melanoma
[5] = test system: SW-620 colon
[6] = test system: IGROV1 ovarian
[7] = test system: MOLT-4 leukemia
[8] = test system: COLO 205 colon
[9] = test system: SR leukemia
[10] = test system: NCI-H23 lung
[11] = test system: NCI-H522 lung
[12] = test system: SNB-19 CNS
[13] = test system: KM12 colon
[14] = test system: SK-MEL-28 melanoma
[15] = test system: HS 578T breast
[16] = test system: 786-0 renal
[17] = test system: HT29 colon
[18] = test system: BT-549 breast
[19] = test system: HCT-116 colon
[20] = test system: NCI-H226 lung
[21] = test system: HOP-92 NSCLC
[22] = test system: MDA-MB-435
[23] = test system: CAKI-1 renal
[24] = test system: RXF 393 renal
[25] = test system: OVCAR-8 ovarian
[26] = test system: A498 renal
[27] = test system: UACC-62 melanoma
[28] = test system: UO-31 renal
[29] = test system: SF-295 CNS
[30] = test system: NCI/ADR-RES ovarian
[31] = test system: NCI-H460 lung
[32] = test system: OVCAR-4 ovarian
[33] = test system: RPMI-8226 leukemia
[34] = test system: TK-10 renal
[35] = test system: HOP-62 NSCLC
[36] = test system: HCC-2998 colon
[37] = test system: LOX IMVI melanoma
[38] = test system: EKVX NSCLC
[39] = test system: MDA-MB-231 breast
[40] = test system: SF-268 CNS
[41] = test system: CCRF-CEM leukemia
[42] = test system: PC-3 prostate
[43] = test system: SK-OV-3 ovarian
[44] = test system: OVCAR-5 ovarian
[45] = test system: U251 CNS
[46] = test system: HL-60(TB) leukemia
[47] = test system: SF-539 CNS
[48] = test system: OVCAR-3 ovarian
[49] = test system: DU-145 prostate
[50] = test system: ACHN renal
[51] = test system: HCT-15 colon
[52] = test system: SK-MEL-2 melanoma
[53] = test system: MCF7 breast
[54] = test system: SN12C renal

Structure (SMILES): COc1ccc(C2NC(=O)c3cc4c(cc3N2)OCO4)cc1 (configuration not stated)
- GI50 [1]: 683 nM
- TGI [1]: > 100000 nM
- GI50 [2]: 678 nM
- TGI [2]: > 100000 nM
- GI50 [3]: 297 nM
- TGI [3]: 50500 nM
- GI50 [4]: 927 nM
- TGI [4]: > 100000 nM
- GI50 [5]: 432 nM
- TGI [5]: > 100000 nM
- GI50 [6]: 4920 nM
- TGI [6]: > 100000 nM
- GI50 [7]: 2540 nM
- TGI [7]: > 100000 nM
- GI50 [8]: 408 nM
- TGI [8]: 3560 nM
- GI50 [9]: 415 nM
- TGI [9]: > 100000 nM
- GI50 [10]: 1250 nM
- TGI [10]: > 100000 nM
- GI50 [11]: 1870 nM
- TGI [11]: 6580 nM
- GI50 [12]: 966 nM
- TGI [12]: > 100000 nM
- GI50 [13]: 557 nM
- TGI [13]: > 100000 nM
- GI50 [14]: 719 nM
- TGI [14]: > 100000 nM
- GI50 [15]: 1420 nM
- TGI [15]: > 100000 nM
- GI50 [16]: 2380 nM
- TGI [16]: > 100000 nM
- GI50 [17]: 856 nM
- TGI [17]: > 100000 nM
- GI50 [18]: 16500 nM
- TGI [18]: > 100000 nM
- GI50 [19]: 511 nM
- TGI [19]: > 100000 nM
- GI50 [20]: 389 nM
- TGI [20]: 6090 nM
- GI50 [21]: 11400 nM
- TGI [21]: > 100000 nM
- GI50 [22]: 215 nM
- TGI [22]: 543 nM
- GI50 [23]: 466 nM
- TGI [23]: > 100000 nM
- GI50 [24]: 287 nM
- TGI [24]: 1610 nM
- GI50 [25]: 1630 nM
- TGI [25]: > 100000 nM
- GI50 [26]: 164 nM
- TGI [26]: 2950 nM
- GI50 [27]: 571 nM
- TGI [27]: > 100000 nM
- GI50 [28]: 13500 nM
- TGI [28]: > 100000 nM
- GI50 [29]: 704 nM
- TGI [29]: > 100000 nM
- GI50 [30]: 508 nM
- TGI [30]: 3860 nM
- GI50 [31]: 341 nM
- TGI [31]: > 100000 nM
- GI50 [32]: 5520 nM
- TGI [32]: > 100000 nM
- TGI [33]: > 100000 nM
- GI50 [34]: 19300 nM
- TGI [34]: > 100000 nM
- GI50 [35]: 1020 nM
- TGI [35]: > 100000 nM
- GI50 [36]: 1070 nM
- TGI [36]: 7140 nM
- GI50 [37]: 821 nM
- TGI [37]: > 100000 nM
- GI50 [38]: 2420 nM
- TGI [38]: > 100000 nM
- GI50 [39]: 3030 nM
- TGI [39]: > 100000 nM
- GI50 [40]: 2000 nM
- TGI [40]: > 100000 nM
- GI50 [41]: 868 nM
- TGI [41]: > 100000 nM
- GI50 [42]: 2810 nM
- TGI [42]: > 100000 nM
- GI50 [43]: 499 nM
- TGI [43]: 7360 nM
- GI50 [44]: 1510 nM
- TGI [44]: > 100000 nM
- GI50 [45]: 849 nM
- TGI [45]: > 100000 nM
- GI50 [46]: 345 nM
- TGI [46]: 1850 nM
- GI50 [47]: 1010 nM
- TGI [47]: 9900 nM
- GI50 [48]: 791 nM
- TGI [48]: 3520 nM
- GI50 [49]: 807 nM
- TGI [49]: > 100000 nM
- GI50 [50]: 4100 nM
- TGI [50]: > 100000 nM
- GI50 [51]: 504 nM
- TGI [51]: > 100000 nM
- GI50 [52]: 2840 nM
- TGI [52]: > 100000 nM
- GI50 [53]: 339 nM
- TGI [53]: > 100000 nM
- GI50 [54]: 481 nM
- TGI [54]: > 100000 nM
